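A five-concentration, 48-hour dose response in 96-well plates underlies each endpoint, interpolated linearly between surrounding concentrations. GI50: concentration for 50% inhibition of growth. Definition used: TGI = concentration required for complete inhibition of growth.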
How the values were obtained:
Test in all cases: inhibition of tumour cell growth, NCI panel, 48 h
A549 NSCLC = test system: A549 NSCLC
LOX IMVI melanoma = test system: LOX IMVI melanoma
MALME-3M melanoma = test system: MALME-3M melanoma
HL-60(TB) leukemia = test system: HL-60(TB) leukemia
ACHN renal = test system: ACHN renal
SK-OV-3 ovarian = test system: SK-OV-3 ovarian
MOLT-4 leukemia = test system: MOLT-4 leukemia
HOP-92 NSCLC = test system: HOP-92 NSCLC
COLO 205 colon = test system: COLO 205 colon
OVCAR-8 ovarian = test system: OVCAR-8 ovarian
SF-539 CNS = test system: SF-539 CNS
OVCAR-3 ovarian = test system: OVCAR-3 ovarian
UO-31 renal = test system: UO-31 renal
HCT-15 colon = test system: HCT-15 colon
UACC-62 melanoma = test system: UACC-62 melanoma
NCI-H460 lung = test system: NCI-H460 lung
SF-295 CNS = test system: SF-295 CNS
SF-268 CNS = test system: SF-268 CNS
K-562 leukemia = test system: K-562 leukemia
OVCAR-5 ovarian = test system: OVCAR-5 ovarian
SNB-19 CNS = test system: SNB-19 CNS
SK-MEL-28 melanoma = test system: SK-MEL-28 melanoma
SN12C renal = test system: SN12C renal
SK-MEL-5 melanoma = test system: SK-MEL-5 melanoma
CAKI-1 renal = test system: CAKI-1 renal
RPMI-8226 leukemia = test system: RPMI-8226 leukemia
HOP-62 NSCLC = test system: HOP-62 NSCLC
NCI-H226 lung = test system: NCI-H226 lung
HCT-116 colon = test system: HCT-116 colon
IGROV1 ovarian = test system: IGROV1 ovarian
NCI-H23 lung = test system: NCI-H23 lung
OVCAR-4 ovarian = test system: OVCAR-4 ovarian
A498 renal = test system: A498 renal
KM20L2 colon = test system: KM20L2 colon
U251 CNS = test system: U251 CNS
NCI-H522 lung = test system: NCI-H522 lung
TK-10 renal = test system: TK-10 renal
HT29 colon = test system: HT29 colon
UACC-257 melanoma = test system: UACC-257 melanoma
HCC-2998 colon = test system: HCC-2998 colon
SW-620 colon = test system: SW-620 colon
786-0 renal = test system: 786-0 renal
SK-MEL-2 melanoma = test system: SK-MEL-2 melanoma
SNB-75 CNS = test system: SNB-75 CNS
M14 melanoma = test system: M14 melanoma
EKVX NSCLC = test system: EKVX NSCLC
KM12 colon = test system: KM12 colon
SR leukemia = test system: SR leukemia
MDA-N = test system: MDA-N
HS 578T breast = test system: HS 578T breast
DU-145 prostate = test system: DU-145 prostate
MDA-MB-435 = test system: MDA-MB-435
MDA-MB-231 breast = test system: MDA-MB-231 breast
NCI/ADR-RES ovarian = test system: NCI/ADR-RES ovarian
T-47D breast = test system: T-47D breast
PC-3 prostate = test system: PC-3 prostate
MCF7 breast = test system: MCF7 breast
CCRF-CEM leukemia = test system: CCRF-CEM leukemia
RXF 393 renal = test system: RXF 393 renal
BT-549 breast = test system: BT-549 breast

CC(=O)[O-].O=C([CH-]C(=O)c1ccccc1)c1ccccc1.O=C([CH-]C(=O)c1ccccc1)c1ccccc1.[Y+3]
GI50 (A549 NSCLC): 10.3 µM
TGI (A549 NSCLC): 34.3 µM
GI50 (LOX IMVI melanoma): 4.95 µM
TGI (LOX IMVI melanoma): 23.4 µM
GI50 (MALME-3M melanoma): 8.02 µM
TGI (MALME-3M melanoma): 39.5 µM
GI50 (HL-60(TB) leukemia): 2.44 µM
TGI (HL-60(TB) leukemia): 10.8 µM
GI50 (ACHN renal): 5.52 µM
TGI (ACHN renal): 22.9 µM
GI50 (SK-OV-3 ovarian): 8.31 µM
TGI (SK-OV-3 ovarian): 37.1 µM
GI50 (MOLT-4 leukemia): 2.91 µM
TGI (MOLT-4 leukemia): 32.3 µM
GI50 (HOP-92 NSCLC): 4.04 µM
TGI (HOP-92 NSCLC): 18.9 µM
GI50 (COLO 205 colon): 8.61 µM
TGI (COLO 205 colon): 22.1 µM
GI50 (OVCAR-8 ovarian): 3.04 µM
TGI (OVCAR-8 ovarian): 20.6 µM
GI50 (SF-539 CNS): 8.67 µM
TGI (SF-539 CNS): 37 µM
GI50 (OVCAR-3 ovarian): 3.12 µM
TGI (OVCAR-3 ovarian): 15.8 µM
GI50 (UO-31 renal): 3.84 µM
TGI (UO-31 renal): 9.66 µM
GI50 (HCT-15 colon): 5.45 µM
TGI (HCT-15 colon): 26.7 µM
GI50 (UACC-62 melanoma): 3.8 µM
TGI (UACC-62 melanoma): 17.8 µM
GI50 (NCI-H460 lung): 2.69 µM
TGI (NCI-H460 lung): 18.4 µM
GI50 (SF-295 CNS): 3.29 µM
TGI (SF-295 CNS): 18.5 µM
GI50 (SF-268 CNS): 4.27 µM
TGI (SF-268 CNS): 31.3 µM
GI50 (K-562 leukemia): 3.45 µM
TGI (K-562 leukemia): > 100 µM
GI50 (OVCAR-5 ovarian): 17.3 µM
TGI (OVCAR-5 ovarian): 80.6 µM
GI50 (SNB-19 CNS): 6.17 µM
TGI (SNB-19 CNS): 64.7 µM
GI50 (SK-MEL-28 melanoma): 8.34 µM
TGI (SK-MEL-28 melanoma): 39 µM
GI50 (SN12C renal): 6.23 µM
TGI (SN12C renal): 38 µM
GI50 (SK-MEL-5 melanoma): 3.56 µM
TGI (SK-MEL-5 melanoma): 14.2 µM
GI50 (CAKI-1 renal): 4.53 µM
TGI (CAKI-1 renal): 19.4 µM
GI50 (RPMI-8226 leukemia): 4.47 µM
TGI (RPMI-8226 leukemia): 33 µM
GI50 (HOP-62 NSCLC): 2.31 µM
TGI (HOP-62 NSCLC): 13.4 µM
GI50 (NCI-H226 lung): 2.56 µM
TGI (NCI-H226 lung): 9.69 µM
GI50 (HCT-116 colon): 4.97 µM
TGI (HCT-116 colon): 19.3 µM
GI50 (IGROV1 ovarian): 6.94 µM
TGI (IGROV1 ovarian): 35.8 µM
GI50 (NCI-H23 lung): 2.2 µM
TGI (NCI-H23 lung): 11.1 µM
GI50 (OVCAR-4 ovarian): 5.73 µM
TGI (OVCAR-4 ovarian): 77.3 µM
GI50 (A498 renal): 16.7 µM
TGI (A498 renal): 41.1 µM
GI50 (KM20L2 colon): 6.51 µM
TGI (KM20L2 colon): 26.3 µM
GI50 (U251 CNS): 3.91 µM
TGI (U251 CNS): 31.5 µM
GI50 (NCI-H522 lung): 1.58 µM
TGI (NCI-H522 lung): 6.06 µM
GI50 (TK-10 renal): 8.27 µM
TGI (TK-10 renal): 66.5 µM
GI50 (HT29 colon): 7.69 µM
TGI (HT29 colon): 20.7 µM
GI50 (UACC-257 melanoma): 9.8 µM
TGI (UACC-257 melanoma): 31.7 µM
GI50 (HCC-2998 colon): 5.72 µM
TGI (HCC-2998 colon): 19.7 µM
GI50 (SW-620 colon): 6.18 µM
TGI (SW-620 colon): 46 µM
GI50 (786-0 renal): 3.9 µM
TGI (786-0 renal): 18 µM
GI50 (SK-MEL-2 melanoma): 2.85 µM
TGI (SK-MEL-2 melanoma): 9.69 µM
GI50 (SNB-75 CNS): 3.1 µM
TGI (SNB-75 CNS): 7.42 µM
GI50 (M14 melanoma): 5.34 µM
TGI (M14 melanoma): 18.9 µM
GI50 (EKVX NSCLC): 3.59 µM
TGI (EKVX NSCLC): 17.8 µM
GI50 (KM12 colon): 4.36 µM
TGI (KM12 colon): 24.5 µM

S=c1sc2nc(Cl)nc(Cl)c2s1
TGI (SR leukemia): 21.2 µM
TGI (A549 NSCLC): 42.4 µM
TGI (LOX IMVI melanoma): 30.3 µM
TGI (MALME-3M melanoma): 23.2 µM
TGI (HL-60(TB) leukemia): 8.78 µM
TGI (ACHN renal): 26.9 µM
TGI (SK-OV-3 ovarian): 31.6 µM
TGI (MDA-N): 24.8 µM
TGI (MOLT-4 leukemia): > 29.3 µM
TGI (HS 578T breast): 60.4 µM
TGI (HOP-92 NSCLC): 17.4 µM
TGI (COLO 205 colon): 20.4 µM
TGI (OVCAR-8 ovarian): 29.8 µM
TGI (SF-539 CNS): 41.6 µM
TGI (OVCAR-3 ovarian): 25.2 µM
TGI (DU-145 prostate): 30.9 µM
TGI (UO-31 renal): 25.1 µM
TGI (HCT-15 colon): 30.7 µM
TGI (UACC-62 melanoma): 27.1 µM
TGI (MDA-MB-435): 22.4 µM
TGI (NCI-H460 lung): 30.8 µM
TGI (SF-295 CNS): 31.7 µM
TGI (SF-268 CNS): 34.4 µM
TGI (K-562 leukemia): 28.1 µM
TGI (OVCAR-5 ovarian): 29.5 µM
TGI (MDA-MB-231 breast): 24.7 µM
TGI (SNB-19 CNS): 34.8 µM
TGI (SK-MEL-28 melanoma): 30.4 µM
TGI (SN12C renal): 32.4 µM
TGI (SK-MEL-5 melanoma): 21.6 µM
TGI (CAKI-1 renal): 17.8 µM
TGI (RPMI-8226 leukemia): 9.67 µM
TGI (HOP-62 NSCLC): 36.9 µM
TGI (NCI/ADR-RES ovarian): 38.2 µM
TGI (NCI-H226 lung): 32.7 µM
TGI (HCT-116 colon): 26 µM
TGI (T-47D breast): 31.9 µM
TGI (PC-3 prostate): 27.9 µM
TGI (IGROV1 ovarian): 27.7 µM
TGI (NCI-H23 lung): 39.3 µM
TGI (OVCAR-4 ovarian): 30.6 µM
TGI (A498 renal): 32 µM
TGI (U251 CNS): 21.3 µM
TGI (NCI-H522 lung): 25.2 µM
TGI (TK-10 renal): 26.5 µM
TGI (HT29 colon): 23.5 µM
TGI (UACC-257 melanoma): 31.9 µM
TGI (HCC-2998 colon): 31.6 µM
TGI (SW-620 colon): 21.1 µM
TGI (MCF7 breast): 25.2 µM
TGI (786-0 renal): 12.9 µM
TGI (SK-MEL-2 melanoma): 23.8 µM
TGI (SNB-75 CNS): 34.8 µM
TGI (CCRF-CEM leukemia): > 46.6 µM
TGI (M14 melanoma): 16.9 µM
TGI (RXF 393 renal): 26 µM
TGI (EKVX NSCLC): 31.8 µM
TGI (KM12 colon): 20.8 µM
TGI (BT-549 breast): 24 µM

CC(C)C1OC(/C=C/c2ccccc2)OCC1(C)C (stereo not given)
TGI (SR leukemia): > 100 µM
TGI (A549 NSCLC): > 100 µM
TGI (LOX IMVI melanoma): 36.6 µM
TGI (MALME-3M melanoma): 25.8 µM
TGI (HL-60(TB) leukemia): 38.3 µM
TGI (ACHN renal): > 100 µM
TGI (SK-OV-3 ovarian): > 100 µM
TGI (MDA-N): > 100 µM
TGI (HS 578T breast): 88.7 µM
TGI (HOP-92 NSCLC): 52.5 µM
TGI (COLO 205 colon): 31.2 µM
TGI (OVCAR-8 ovarian): > 100 µM
TGI (OVCAR-3 ovarian): 44.9 µM
TGI (DU-145 prostate): > 100 µM
TGI (UO-31 renal): > 100 µM
TGI (HCT-15 colon): > 100 µM
TGI (UACC-62 melanoma): > 100 µM
TGI (MDA-MB-435): > 100 µM
TGI (NCI-H460 lung): 39.9 µM
TGI (SF-295 CNS): > 100 µM
TGI (SF-268 CNS): > 100 µM
TGI (K-562 leukemia): > 100 µM
TGI (OVCAR-5 ovarian): > 100 µM
TGI (MDA-MB-231 breast): 94.7 µM
TGI (SNB-19 CNS): > 100 µM
TGI (SK-MEL-28 melanoma): > 100 µM
TGI (SN12C renal): 44 µM
TGI (SK-MEL-5 melanoma): 37.5 µM
TGI (CAKI-1 renal): > 100 µM
TGI (RPMI-8226 leukemia): 47 µM
TGI (HOP-62 NSCLC): > 100 µM
TGI (NCI/ADR-RES ovarian): > 100 µM
TGI (NCI-H226 lung): 63 µM
TGI (HCT-116 colon): 92 µM
TGI (T-47D breast): > 100 µM
TGI (PC-3 prostate): > 100 µM
TGI (IGROV1 ovarian): > 100 µM
TGI (NCI-H23 lung): 98.9 µM
TGI (OVCAR-4 ovarian): > 100 µM
TGI (A498 renal): 63.7 µM
TGI (U251 CNS): 60.8 µM
TGI (NCI-H522 lung): 32.2 µM
TGI (TK-10 renal): 80.8 µM
TGI (HT29 colon): > 100 µM
TGI (UACC-257 melanoma): 63.6 µM
TGI (HCC-2998 colon): 38.5 µM
TGI (SW-620 colon): > 100 µM
TGI (MCF7 breast): > 100 µM
TGI (786-0 renal): > 100 µM
TGI (SK-MEL-2 melanoma): 37.5 µM
TGI (SNB-75 CNS): 78.6 µM
TGI (CCRF-CEM leukemia): 41.8 µM
TGI (M14 melanoma): > 100 µM
TGI (RXF 393 renal): 42.3 µM
TGI (EKVX NSCLC): 82.3 µM
TGI (KM12 colon): > 100 µM
TGI (BT-549 breast): > 100 µM
